The target in assay [1] is T1, COS-7/AMY3 (human calcitonin receptor (CTR) and RAMP3) (Homo sapiens, UniProt O60896+P30988).
T1 construct: expressed in transfected cells; host or cells: COS-7
The assay can be described thus: Amylin Receptor cAMP Assay II. In kind it is cell-based. The conditions noted are these: values marked **: Amylin Receptor cAMP Assay II; COS-7/AMY3 cells, cAMP dynamic 2 kit, 30 min; read-out: Amylin Receptor cAMP Stimulation Activity: EC50. The gist of the method: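 COS-7 cells stably co-expressing human CTR and RAMP3 (AMY3), 2000 cells/well in HBSS with 20 mM HEPES, 0.5 mM IBMX, 0.1% casein, stimulated with compound for 30 min at 37 °C. cAMP measured by HTRF (665/615 nm), activity normalized between vehicle and maximal control.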

The target of assay [2] is T2, human calcitonin receptor (CTR) (Homo sapiens, UniProt P30988).
T2 construct: expressed in transfected cells; host or cells: COS-7 (COS7-human CTR Clone #2)
T2 sequence (P30988 25-474): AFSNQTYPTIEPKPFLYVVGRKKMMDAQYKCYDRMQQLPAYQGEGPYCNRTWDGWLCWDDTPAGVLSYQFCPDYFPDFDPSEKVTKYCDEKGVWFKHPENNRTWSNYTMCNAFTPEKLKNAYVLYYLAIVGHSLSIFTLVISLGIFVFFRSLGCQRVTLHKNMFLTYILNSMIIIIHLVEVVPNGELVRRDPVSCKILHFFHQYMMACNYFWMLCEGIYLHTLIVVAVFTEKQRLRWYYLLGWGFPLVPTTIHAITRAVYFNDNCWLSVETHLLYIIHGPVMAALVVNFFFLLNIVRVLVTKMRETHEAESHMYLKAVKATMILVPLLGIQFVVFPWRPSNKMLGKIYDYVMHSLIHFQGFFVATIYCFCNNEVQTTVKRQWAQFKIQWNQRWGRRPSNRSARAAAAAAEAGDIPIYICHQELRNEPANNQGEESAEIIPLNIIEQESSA
The assay can be described thus: Calcitonin Receptor (CTR) cAMP Assay. It is filed as cell-based. As to conditions: COS7-human CTR Clone #2 stable cell line, cAMP dynamic 2 kit, 30 min; read-out: Calcitonin Receptor cAMP Stimulation Activity: EC50. In short, it runs like this:
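COS-7 cells stably expressing human CTR (2000 cells/well) were incubated 30 min at 37 °C with 4-fold serially diluted compound in HBSS/20 mM HEPES/0.5 mM IBMX/0.1% casein. cAMP was detected by HTRF (665/615 nm) after 1 h at RT. % activity was normalised to vehicle and positive controls.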

Each structure is given as a SMILES string.

T1 sequence (O60896 24-148, one chain of several): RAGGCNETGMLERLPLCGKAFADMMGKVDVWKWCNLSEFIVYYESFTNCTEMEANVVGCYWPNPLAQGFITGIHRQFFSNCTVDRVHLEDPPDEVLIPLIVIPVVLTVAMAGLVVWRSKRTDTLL

For `O=C1c2c(nc(CCc3ccc(F)cc3)c(-c3n[nH]c(=O)o3)c2-c2cc3ccnc(N[C@@H]4CCOc5ccccc54)c3s2)[C@@H]2CCCN12` [Compound 170], the EC50 stood at 33.1 nM in assay [1] and 1.19 nM in assay [2].
`O=C1c2c(nc(CCc3ccc(F)cc3)c(-c3noc(=O)[nH]3)c2-c2cc3ccnc(OCc4ccc(F)c(F)c4)c3s2)[C@@H]2CCCN12` [Compound 133, (S)-3-(4-(7-((3,4-difluorobenzyl)oxy)thieno[2,3-c]pyridin-2-yl)-2-(4-fluorophenethyl)-5-oxo-7,8,9,9a-tetrahydro-5H-pyrido[2,3-a]pyrrolizin-3-yl)-1,2,4-oxadiazol-5(4H)-one]: the EC50 in assay [1] was found to be 90.7 nM; in assay [2], 4.42 nM.
For `COc1c(F)ccc2c1CC[C@H]2Nc1nccc2cc(-c3c4c(nc(CCc5cccc(Cl)c5)c3-c3n[nH]c(=O)o3)C35CC(CN3C4=O)C5)sc12` [Compound 277, (R)-5-(2-(3-chlorophenethyl)-4-(7-((5-fluoro-4-methoxy-2,3-dihydro-1H-inden-1-yl)amino)thieno[2,3-c]pyridin-2-yl)-5-oxo-8,9-dihydro-5H,7H-8,9a-methanopyrido[2,3-a]pyrrolizin-3-yl)-1,3,4-oxadiazol-2(3H)-one], in that order: 0.368 nM and 0.0207 nM.
The corresponding values for `COc1cccc2c1CC[C@H]2Nc1nccc2cc(-c3c4c(nc(CCc5ccc(F)cc5)c3-c3n[nH]c(=O)o3)[C@]3(C)CCCN3C4=O)sc12` [Compound 178, 5-((S)-2-(4-fluorophenethyl)-4-(7-(((R)-4-methoxy-2,3-dihydro-1H-inden-1-yl)amino)thieno[2,3-c]pyridin-2-yl)-9a-methyl-5-oxo-7,8,9,9a-tetrahydro-5H-pyrido[2,3-a]pyrrolizin-3-yl)-1,3,4-oxadiazol-2(3H)-one] are 203 nM and 3.19 nM.
For `COc1cccc2c1CC[C@H]2Nc1nccc2cc(-c3c4c(nc(C[C@H]5CCc6cc(F)ccc65)c3-c3n[nH]c(=O)o3)[C@@H]3CCCN3C4=O)sc12` [Compound 224, 5-((S)-2-(((R)-5-fluoro-2,3-dihydro-1H-inden-1-yl)methyl)-4-(7-(((R)-4-methoxy-2,3-dihydro-1H-inden-1-yl)amino)thieno[2,3-c]pyridin-2-yl)-5-oxo-7,8,9,9a-tetrahydro-5H-pyrido[2,3-a]pyrrolizin-3-yl)-1,3,4-oxadiazol-2(3H)-one], in that order: 50.7 nM and 0.702 nM.
Turning to `COc1c(F)ccc2c1CC[C@H]2Nc1nccc2cc(-c3c4c(nc(CCc5ccc(F)cc5)c3-c3n[nH]c(=O)o3)[C@@H]3CCCN3C4=O)sc12` [Compound 167, 5-((S)-4-(7-(((R)-5-fluoro-4-methoxy-2,3-dihydro-1H-inden-1-yl)amino)thieno[2,3-c]pyridin-2-yl)-2-(4-fluorophenethyl)-5-oxo-7,8,9,9a-tetrahydro-5H-pyrido[2,3-a]pyrrolizin-3-yl)-1,3,4-oxadiazol-2(3H)-one], the EC50 in assay [1] was found to be 4.38 nM; in assay [2] it was 0.13 nM.
Consider `COc1c(F)ccc2c1CC[C@H]2Nc1ncnc2cc(-c3c4c(nc(CCc5ccc(F)cc5)c3-c3n[nH]c(=O)o3)C35CC(CN3C4=O)C5)sc12` [Compound 268, (R)-5-(4-(4-((5-fluoro-4-methoxy-2,3-dihydro-1H-inden-1-yl)amino)thieno[3,2-d]pyrimidin-6-yl)-2-(4-fluorophenethyl)-5-oxo-8,9-dihydro-5H,7H-8,9a-methanopyrido[2,3-a]pyrrolizin-3-yl)-1,3,4-oxadiazol-2(3H)-one], for which the values for the EC50 in assay [1] and in assay [2] were 1.07 nM and 0.077 nM, respectively.
As for `COc1cccc2c1CC[C@H]2Nc1nccc2cc(-c3c4c(nc(CCc5ccccc5C(F)(F)F)c3-c3noc(=O)[nH]3)[C@@H]3CCCN3C4=O)sc12` [Compound 125, 3-((S)-4-(7-(((R)-4-methoxy-2,3-dihydro-1H-inden-1-yl)amino)thieno[2,3-c]pyridin-2-yl)-5-oxo-2-(2-(trifluoromethyl)phenethyl)-7,8,9,9a-tetrahydro-5H-pyrido[2,3-a]pyrrolizin-3-yl)-1,2,4-oxadiazol-5(4H)-one], the values for the EC50 in assay [1] and in assay [2] were 50.5 nM and 0.711 nM, respectively.
Consider `O=C1c2c(nc(CCc3ccc(F)cc3)c(-c3noc(=O)[nH]3)c2-c2cc3ccnc(N[C@@H]4CCCc5ccccc54)c3s2)[C@@H]2CCCN12` [Compound 139], for which the results for the EC50 in assay [1] and in assay [2] were 41.5 nM and 2.7 nM, respectively.
For `COc1cccc2c1CC[C@H]2Nc1nccc2cc(-c3c4c(nc(CCc5ccc(F)cc5)c3-c3n[nH]c(=O)o3)[C@H]3N(CCC3(C)C)C4=O)sc12` [Compound 182, 5-((S)-2-(4-fluorophenethyl)-4-(7-(((R)-4-methoxy-2,3-dihydro-1H-inden-1-yl)amino)thieno[2,3-c]pyridin-2-yl)-9,9-dimethyl-5-oxo-7,8,9,9a-tetrahydro-5H-pyrido[2,3-a]pyrrolizin-3-yl)-1,3,4-oxadiazol-2(3H)-one], in that order: 52.9 nM and 7.85 nM.
The corresponding values for `COc1c(F)ccc2c1CC[C@H]2Nc1nc(C)cc2cc(-c3c4c(nc(CCc5ccc(F)cc5)c3-c3n[nH]c(=O)o3)[C@@H]3COCCN3C4=O)sc12` [Compound 263, (R)-4-(7-(((R)-5-fluoro-4-methoxy-2,3-dihydro-1H-inden-1-yl)amino)-5-methylthieno[2,3-c]pyridin-2-yl)-2-(4-fluorophenethyl)-3-(5-oxo-4,5-dihydro-1,3,4-oxadiazol-2-yl)-7,8,10,10a-tetrahydro-5H-pyrido[2′,3′:3,4]pyrrolo[2,1-c][1,4]oxazin-5-one] are 0.629 nM and 0.0341 nM.
For `COc1cccc2c1CC(F)(F)[C@H]2Nc1nccc2cc(-c3c4c(nc(CCc5ccc(F)cc5)c3-c3n[nH]c(=O)o3)[C@@H]3COCCN3C4=O)sc12` [Compound 284, (R)-4-(7-(((S)-2,2-difluoro-4-methoxy-2,3-dihydro-1H-inden-1-yl)amino)thieno[2,3-c]pyridin-2-yl)-2-(4-fluorophenethyl)-3-(5-oxo-4,5-dihydro-1,3,4-oxadiazol-2-yl)-7,8,10,10a-tetrahydro-5H-pyrido[2′,3′:3,4]pyrrolo[2,1-c][1,4]oxazin-5-one], in that order: 81.6 nM and 4.23 nM.
As for `COc1c(F)ccc2c1CC[C@H]2Nc1nccc2cc(-c3c4c(nc(CCc5ccc(F)cc5)c3-c3n[nH]c(=O)o3)[C@@H]3COCCN3C4=O)sc12` [Compound 262, (R)-4-(7-(((R)-5-fluoro-4-methoxy-2,3-dihydro-1H-inden-1-yl)amino)thieno[2,3-c]pyridin-2-yl)-2-(4-fluorophenethyl)-3-(5-oxo-4,5-dihydro-1,3,4-oxadiazol-2-yl)-7,8,10,10a-tetrahydro-5H-pyrido[2′,3′:3,4]pyrrolo[2,1-c][1,4]oxazin-5-one], the EC50 turned out to be 2.81 nM in assay [1] and 0.0963 nM in assay [2].
The corresponding values for `CN(Cc1ccc(F)c(F)c1)c1nccc2cc(-c3c4c(nc(CCc5ccc(F)cc5)c3-c3noc(=O)[nH]3)[C@@H]3CCCN3C4=O)sc12` [Compound 107, (S)-3-(4-(7-((3,4-difluorobenzyl)(methyl)amino)thieno[2,3-c]pyridin-2-yl)-2-(4-fluorophenethyl)-5-oxo-7,8,9,9a-tetrahydro-5H-pyrido[2,3-a]pyrrolizin-3-yl)-1,2,4-oxadiazol-5(4H)-one] are 34.4 nM and 9.03 nM.
The corresponding values for `COc1cc2c(cc1F)[C@H](Nc1nccc3cc(-c4c5c(nc(CCc6ccc(F)cc6)c4-c4n[nH]c(=O)o4)[C@@H]4CCCN4C5=O)sc13)CC2` [Compound 257, 5-((S)-4-(7-(((R)-6-fluoro-5-methoxy-2,3-dihydro-1H-inden-1-yl)amino)thieno[2,3-c]pyridin-2-yl)-2-(4-fluorophenethyl)-5-oxo-7,8,9,9a-tetrahydro-5H-pyrido[2,3-a]pyrrolizin-3-yl)-1,3,4-oxadiazol-2(3H)-one] are 10.2 nM and 0.696 nM.
The corresponding values for `COc1c(F)ccc2c1CC[C@H]2Nc1nc(C)cc2cc(-c3c4c(nc(CCc5ccc(F)cc5)c3-c3n[nH]c(=O)o3)C35CC(CN3C4=O)C5)sc12` [Compound 193, (R)-5-(4-(7-((5-fluoro-4-methoxy-2,3-dihydro-1H-inden-1-yl)amino)-5-methylthieno[2,3-c]pyridin-2-yl)-2-(4-fluorophenethyl)-5-oxo-8,9-dihydro-5H,7H-8,9a-methanopyrido[2,3-a]pyrrolizin-3-yl)-1,3,4-oxadiazol-2(3H)-one] are 0.226 nM and 0.00749 nM.

As usually defined, the EC50 is the concentration at which the effect is half-maximal.

For the origin of these results see patent US12486269B2 (Aconcagua Bio, Inc., priority 2024, dated 2025).
